One data set concerns Staph. aureus X1.1. As to the kind of experiment: MIC by standard agar-dilution test, Staph. aureus X1.1. It counts as cell-based. Conditions: Staphylococcus aureus; Staph. aureus X1.1, agar dilution. The source says: (§1) The minimal inhibitory concentrations (MIC's) at which A201C, A201D, and A201E inhibit selected Gram positive bacteria, as determined by standard agar-dilution tests, are summarized in Table I: […]

The next data set has as its system Staph. aureus V41. Description: MIC by standard agar-dilution test, Staph. aureus V41. Type of data set: cell-based. The conditions noted are these: Staphylococcus aureus.
Text: as §1

Another data set has as its system Staph. aureus X400. Description: MIC by standard agar-dilution test, Staph. aureus X400. Conditions: Staphylococcus aureus. Type of data set: cell-based.
Text: as §1

The next data set has as its system Staph. aureus S13E. Description: MIC by standard agar-dilution test, Staph. aureus S13E. It counts as cell-based. Conditions: Staphylococcus aureus.
Text: as §1

The test system of the next data set is Staph. epi. Epi1. Description: MIC by standard agar-dilution test, Staph. epi. Epi1. Type of data set: cell-based.
Text: as §1

Another data set relates to Staph. epi. Epi2. Description: MIC by standard agar-dilution test, Staph. epi. Epi2. Type of data set: cell-based.
Text: as §1

In the next data set the test system is Streptococcus C203. Description: MIC by standard agar-dilution test, Streptococcus C203. Type of data set: cell-based.
Text: as §1

In a further data set the test system is Streptococcus Park. As to the kind of experiment: MIC by standard agar-dilution test, Streptococcus Park. Type of data set: cell-based.
Text: as §1

The subject of a further data set is Streptococcus X66. Description: MIC by standard agar-dilution test, Streptococcus X66. Type of data set: cell-based.
Text: as §1

In the next data set the test system is Streptococcus 9960. Description: MIC by standard agar-dilution test, Streptococcus 9960. It counts as cell-based. The conditions noted are these: Streptococcus 9960, agar dilution.
Text: as §1
On the technique in general: In agar dilution, organisms are placed on agar that contains the substance at set levels.

The test system of a further data set is H. influ. HOLT. Description: MIC by standard agar-dilution test, H. influ. HOLT. Type of data set: cell-based.
Another data set concerns H. influ. R252. As to the kind of experiment: MIC by standard agar-dilution test, H. influ. R252. Type of data set: cell-based.
Data set [1] concerns pathogenic microorganisms, particularly Gram positive bacteria. As to the kind of experiment: Inhibition of growth of pathogenic microorganisms (general statement). Type of data set: cell-based.
Data set [2] has as its system Streptococcus pyogenes C203. As to the kind of experiment: Therapy of mouse infection, Streptococcus pyogenes C203. Type of data set: in vivo, Mice. The conditions noted are these: 1 and 5 hour post infection, 7 days. The protocol:
(§2) One hour and five hours later the mice are given a subcutaneous (S.C.) dose of the compound in 60% propylene glycol. The compound is administered at five different dosage levels (eight mice for each dosage level). The animals are observed for 7 days and the number of survivors is noted. For each organism, the ED50 value is calculated using the method of W. Wick, J. Bacteriol. 81, 233 (1961).
(§3) ^b Compound administered subcutaneously (S.C.), 1 and 5 hour post

In data set [3] the test system is Staphylococcus aureus 3055. As to the kind of experiment: Therapy of mouse infection, Staphylococcus aureus 3055. It counts as in vivo, Mice. Conditions: 1 and 5 hour post infection, 7 days. The protocol:
as §2, §3

The subject of data set [4] is Diplococcus pneumoniae Park I. As to the kind of experiment: Therapy of mouse infection, Diplococcus pneumoniae Park I. It counts as in vivo, Mice. The conditions noted are these: 1 and 5 hour post infection, 7 days. As for the experimental part: as §2, §3
The next data set in a line: pKa. Type of data set: physicochemical. Conditions: 66% dmf-h2o.
For data set [5], the system named is experimental bacterial infections. As to the kind of experiment: In vivo therapeutic activity against experimental bacterial infections (general statement). Conditions: mice. As for the experimental part: as §2
Where [6] appears, read: H. influ. R252, agar dilution, read-out: MIC.

In brackets after ≈: the same amount, converted by molar mass. Read-outs that look alike come from different tables or passages of the source.

In the case of `COC(CO)=C1OC(Oc2ccc(C=C(C)C(=O)NC3C(CO)OC(n4cnc5c(N(C)C)ncnc54)C3O)cc2)C(O)C1O` (stereo not drawn) [Factor D], the MIC in the data set with Staph. aureus X1.1 is 32 µg/mL (≈ 50.9 µM); against Staph. aureus V41 (V41) it was more than 128 µg/mL; against Staph. aureus X400, 64 µg/mL (≈ 102 µM); against Staph. aureus S13E, 32 µg/mL (≈ 50.9 µM); in the data set with Staph. epi. Epi1 it was 128 µg/mL (≈ 204 µM); in the data set with Staph. epi. Epi2, 128 µg/mL (≈ 204 µM). Moreover, the minimum inhibitory concentration (MIC) against Streptococcus C203 was 8 µg/mL (≈ 12.7 µM); against Streptococcus Park, 64 µg/mL (≈ 102 µM); against Streptococcus X66, more than 128 µg/mL; against Streptococcus 9960, more than 128 µg/mL; against H. influ. HOLT, 128 µg/mL (≈ 204 µM); with H. influ. R252 (setting [6]) it was 64 µg/mL (≈ 102 µM). Further, the “inhibition of growth of pathogenic microorganisms” value (from here on “inhibition”) in data set [1] was “inhibit the growth of certain pathogenic microorganisms, particularly Gram positive bacteria”.

Regarding `COC(COC1OC(C)C(OC)C(OC)C1O)=C1OC(Oc2ccc(C=C(C)C(=O)NC3C(CO)OC(n4cnc5c(N(C)C)ncnc54)C3O)cc2)C(O)C1O` (stereo not drawn) [Factor A201A, reference compound], the MIC with Staph. aureus X1.1 is 1 µg/mL (≈ 1.25 µM); with Staph. aureus V41 (Staph. aureus V41, agar dilution, read-out: MIC) it was 16 µg/mL (≈ 19.9 µM); in the data set on Staph. aureus X400, 1 µg/mL (≈ 1.25 µM); against Staph. aureus S13E, 1 µg/mL (≈ 1.25 µM); in the data set with Staph. epi. Epi1, 16 µg/mL (≈ 19.9 µM); in the data set on Staph. epi. Epi2, 8 µg/mL (≈ 9.96 µM). For the same compound, the minimal inhibitory concentration (MIC) amounted to 0.25 µg/mL (≈ 0.311 µM) against Streptococcus C203; 4 µg/mL (≈ 4.98 µM) in the data set on Streptococcus Park; 8 µg/mL (≈ 9.96 µM) against Streptococcus X66; 64 µg/mL (≈ 79.7 µM) in the data set on Streptococcus 9960; 8 µg/mL (≈ 9.96 µM) against H. influ. HOLT; 4 µg/mL (≈ 4.98 µM) in the data set on H. influ. R252 (setting [6]).

Take `COC(COC1OC(C)C(OC)C(OC)C1O)=C1OC(Oc2ccc(C=C(C)C(=O)NC3C(CO)OC(n4cnc5c(N(C)C)ncnc54)C3O)cc2O)C(O)C1O` (stereo not drawn) [Factor C]: the MIC with Staph. aureus X1.1 is 8 µg/mL (≈ 9.77 µM); in the data set on Staph. aureus V41 (V41) it was more than 128 µg/mL; in the data set on Staph. aureus X400, 8 µg/mL (≈ 9.77 µM); against Staph. aureus S13E, 8 µg/mL (≈ 9.77 µM); with Staph. epi. Epi1 it was 128 µg/mL (≈ 156 µM); with Staph. epi. Epi2 it was 64 µg/mL (≈ 78.2 µM). Besides, the MIC against Streptococcus C203 was 1 µg/mL (≈ 1.22 µM); in the data set with Streptococcus Park it was 8 µg/mL (≈ 9.77 µM); in the data set on Streptococcus X66, 64 µg/mL (≈ 78.2 µM); in the data set on Streptococcus 9960, more than 128 µg/mL; with H. influ. HOLT it was 132 µg/mL (≈ 161 µM); in the data set with H. influ. R252, 32 µg/mL (≈ 39.1 µM). The “Survivors/Total No. of Mice” value is on record as 0/8 in [2] (2.19 mg/kg S.C.); 4/8 in [2] (4.375 mg/kg S.C.); 6/8 in [2] (8.75 mg/kg S.C.); 8/8 in data set [2] (17.5 mg/kg S.C.); 8/8 in [2] (35 mg/kg S.C.); 0/8 in [3] (2.19 mg/kg S.C.). For the same compound, the “Survivors/Total No. of Mice” value in [3] (4.375 mg/kg S.C.) is recorded as 1/8; in [3] (8.75 mg/kg S.C.) it was 3/8; in data set [3] (17.5 mg/kg S.C.), 0/8; in data set [3] (35 mg/kg S.C.), 5/8; in data set [4] (4.378 mg/kg S.C.), 0/8; in data set [4] (8.75 mg/kg S.C.) it was 0/8. The “Survivors/Total No. of Mice” value in data set [4] (17.5 mg/kg S.C.), in data set [4] (35 mg/kg S.C.) and in data set [4] (70 mg/kg S.C.) was 0/8 each time. In addition, the ED50 was 5.3 mg/kg in data set [2] (Streptococcus pyogenes, C203, sc, 168 h, S.C., IP infection 243 LD50's); 26 mg/kg in data set [3] (Staphylococcus aureus, 3055, sc, 168 h, S.C., IP infection 260 LD50's); more than 70 mg/kg in data set [4] (Streptococcus pneumoniae, sc, 168 h, S.C., IP infection 260 LD50's). The pKa in “pKa” amounted to 11.4. Further, in [1], the “inhibition” value is reported as “inhibit the growth of certain pathogenic microorganisms, particularly Gram positive bacteria”. Also, the “in vivo therapeutic activity against experimental bacterial infections” value is “has shown in vivo therapeutic activity against experimental bacterial infections” in [5] (listed as A201C) and “has shown in vivo therapeutic activity against experimental bacterial infections in mice” in [5] (listed as Formula II).

Take `COC(COC1OC(C)C(OC)C(OC)C1O)C1OC(Oc2ccc(C=C(C)C(=O)NC3C(CO)OC(n4cnc5c(N(C)C)ncnc54)C3O)cc2)C(O)C1O` (stereo not drawn) [Factor E]: the MIC in the data set on Staph. aureus X1.1 came to 16 µg/mL (≈ 19.9 µM); with Staph. aureus V41 (V41), 128 µg/mL (≈ 159 µM); against Staph. aureus X400, 16 µg/mL (≈ 19.9 µM); in the data set on Staph. aureus S13E, 16 µg/mL (≈ 19.9 µM); with Staph. epi. Epi1 it was 64 µg/mL (≈ 79.5 µM); with Staph. epi. Epi2 it was 64 µg/mL (≈ 79.5 µM). Moreover, the MIC against Streptococcus C203 is 1 µg/mL (≈ 1.24 µM); against Streptococcus Park it was 16 µg/mL (≈ 19.9 µM); against Streptococcus X66, 64 µg/mL (≈ 79.5 µM); with Streptococcus 9960 it was more than 128 µg/mL; in the data set with H. influ. HOLT it was 32 µg/mL (≈ 39.8 µM); in the data set on H. influ. R252 (setting [6]), 32 µg/mL (≈ 39.8 µM). In data set [1], the “inhibition” value is recorded as “inhibit the growth of certain pathogenic microorganisms, particularly Gram positive bacteria”.

The term MIC denotes the least concentration at which growth counts as inhibited. As a reminder, the ED50 is the midpoint of the dose-response relation. A higher ED50 goes with weaker potency. As a reminder, the pKa is the negative logarithm of the acid dissociation constant. The low end stands for a group that gives up its proton readily, the high end for a group that holds its proton tightly.

The values above are taken from US4205164A, “Antibiotic A201C, A201D and A201E” (priority 1979, dated 1980).
